Consider 1 molecule from publication PMC4565196 (Biochimica et biophysica acta, 2014).

What is called pKd is the Kd on a negative log10 scale, so that one unit is a factor of ten.

Assay [1] concerns A2AR single and double Cys-to-Ala variants. Description: Fluorescent-ligand binding to the A2AR variants. Set-up: species or system human. The conditions noted are these: HEK-293 cells, untagged A2AR constructs, 70 nM FITC-APEC, 1 h at 37 °C.
Assay [2] concerns the target A2a–adenosine receptors. Particulars: high affinity fluorescent agonist; cited from earlier work.

Structures are written as SMILES. pKd: −log10 of the molar value.

With `CCNC(=O)[C@H]1O[C@@H](n2cnc3c(N)nc(NCCc4ccc(CCC(=O)NCCNC(=S)Nc5ccc6c(c5)C(=O)OC6(c5ccc(O)cc5)c5ccc(O)cc5)cc4)nc32)[C@H](O)[C@@H]1O` [FITC-APEC, 2-[2-[4-[2-[2-[1,3-Dihydro-1,1-bis (4-hydroxyphenyl)-3-oxo-5-isobenzofuranthioureidyl]ethylaminocarbonyl]ethyl]phenyl]ethylamino]-5N′-ethylcarboxamidoadenosine], the “fluorescent ligand binding at the cell surface” value in assay [1] is given as “capable of binding”. Further, the pKd in assay [2] was 7.24.
